In brackets after ≈: the same amount, converted by molar mass.
How the values were obtained:
[1] = target: T1, 5-lipoxygenase (Cavia porcellus, UniProt A0A286X958); test: 5-lipoxygenase inhibiting activity in guinea pig; type: biochemical; settings: read-out: Inhibition rate against 5-lipoxygenase activity
T1 construct: 5-lipoxygenase was prepared with polymorphonuclear leukocyte obtained from peritoneal cavity; endogenous in cells; host or cells: guinea pig peritoneal polymorphonuclear leukocytes (casein-elicited)
T1 sequence (A0A286X958 1-674): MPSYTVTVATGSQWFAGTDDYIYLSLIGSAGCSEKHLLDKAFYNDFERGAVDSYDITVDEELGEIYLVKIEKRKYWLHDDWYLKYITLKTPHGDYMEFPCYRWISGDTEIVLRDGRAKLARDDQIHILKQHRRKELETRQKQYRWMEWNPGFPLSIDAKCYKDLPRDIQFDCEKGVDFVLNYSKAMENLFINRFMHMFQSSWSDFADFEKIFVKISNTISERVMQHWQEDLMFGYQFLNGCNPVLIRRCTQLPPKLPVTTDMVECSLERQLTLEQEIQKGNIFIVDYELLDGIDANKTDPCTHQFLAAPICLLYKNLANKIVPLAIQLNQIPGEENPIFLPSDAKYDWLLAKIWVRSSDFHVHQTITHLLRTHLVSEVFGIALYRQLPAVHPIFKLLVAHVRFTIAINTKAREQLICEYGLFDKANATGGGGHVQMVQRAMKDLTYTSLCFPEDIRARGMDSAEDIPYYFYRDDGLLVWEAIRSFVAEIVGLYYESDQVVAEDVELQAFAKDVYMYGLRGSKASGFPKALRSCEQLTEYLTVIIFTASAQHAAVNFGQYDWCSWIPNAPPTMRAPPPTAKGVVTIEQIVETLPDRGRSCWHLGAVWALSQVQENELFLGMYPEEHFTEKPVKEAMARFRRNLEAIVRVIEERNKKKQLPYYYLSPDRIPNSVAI
Description: The test was carried out according to the method of Ochi [cf. J. Biol. Chem., 258, 5754-5758 (1983)]. Two % casein solution in saline was injected intraperitoneally into guinea pigs in an amount of 1/10 of body weight. After 16 hours, 5-lipoxygenase was prepared with polymorphonuclear leukocyte obtained from peritoneal cavity. Test compound and 5-lipoxygenase were pre-incubated at 30° C. for 10 minutes, CaCl2 (calcium chloride) and ^14 C-arachidonic acid were added thereto, and the resulting mixture was incubated for 20 minutes. A mixture of ethyl acetate/methanol/0.2M citric acid=30/4/1 (by volume) was added thereto to stop the reaction. After centrifugation, the organic solvent layer was spotted on a plate for thin layer chromatography and developed. Effect of the test compound was determined from the amount of ^14 C-5-hydroxyeicosatetraenoic acid (hereinafter referred to as "5-HETE") formed from ^14 C-arachidonic acid. Radioactivity of 5-HETE position was measured with a liquid scintillation counter.
Inhibition rate against 5-lipoxygenase activity was calculated according to the following equation.
Inhibition rate against 5-lipoxygenase activity [formula] A: Value of radioactivity in the control group B: Value of radioactivity in the test compound group
Each test compound was used in a concentration of 10 μM.

[2] = tested on: PCA (homologous passive cutaneous anaphylaxis) in rat; test: Inhibitory activity against PCA in rat; type: in vivo, rat (male Slc: Wistar); settings: 5 mg/kg oral, 1 hour before antigen challenge; for inhibition in vivo at 5 mg/kg: Rattus norvegicus, read-out: Inhibition rate against PCA
Description: An anti-dinitrophenylated-ovalbumin (hereinafter referred to as "anti-DNP-OVA") rat antiserum having 800 of PCA titer in homologous passive cutaneous anaphylaxis reaction in rats for 48 hours, was diluted 200 times with physiological saline, and diluted antiserum was injected intradermally into back of groups of 5 male Slc: Wistar rats weighing 130-150 g in a volume of 50 μl/site to be passively sensitized. After 48 hours, 0.6 ml of 1% (w/v) Evans blue solution containing 1.5 mg of antigen DNP-OVA was administered intravenously into the tail. Thirty minutes later, the rats were bled to death and skin of the rats was removed. According to the method of Katayama et al [Microbiol. […] The test compound was suspended in 0.5% (w/v) aqueous solution of carboxymethylcellulose (hereinafter referred to as "CMC"), the suspension was administered orally in a ratio of 5 mg/kg 1 hour before challenging an antigen.
Inhibition rate against PCA was calculated according to the following equation. [formula] M: Amount of leaked pigment in antibody-sensitized site under administration of CMC without the test compound
S: Amount of leaked pigment in antibody-sensitized site under administration of the test compound in CMC
B: Amount of leaked pigment in antibody-nonsensitized site

[3] = tested on: histamine release from rat mast cell; test: Inhibitory activity against histamine release from rat mast cell; type: cell-based; settings: 10 μg/ml, read-out: Inhibitory rate against histamine release
Description: An anti-dinitrophenylated-ovalbumin (anti DNP-OVA) rat antiserum having 800 of PCA titer in homologous passive cutaneous anaphylaxis reaction in rats for 48 hours was diluted double with physiological saline, and 1 ml of diluted antiserum was injected intraperitoneally into rats to be passively sensitized. On the next day, peritoneal exudation cell (hereinafter referred to as "PEC") was collected. The collected PEC was washed with a medium containing 0.1% BSA, and 1.5×10^5 of the PEC were added to each test tube. AFter incubation at 37° C. for 10 minutes, 50 μl of test compound solution in a same medium was added thereto. After 30 seconds, 50 μl of antigen solution (DVA-OVA 100 μg/ml) was further added thereto to give the total amount of 500 μl of the reaction mixture, and histamine release reaction was induced. After 10 minutes, 1 ml of physiological saline with cooled Tris buffered solution containing 1 mM EDTA were added thereto to stop the reaction. After centrifugation, the amount of histamine in supernatant was determined by fluorescence method according to the method of Shore et al [cf. J. Pharmacol. Exp. Ther., 127, 182 (1959)]. Inhibition rate against histamine release was calculated according to the following equation.
Inhibition rate against histamine release [formula] M: Amount of histamine in supernatant under addition of antigen and non-addition of test compound
S: Amount of histamine in supernatant under addition of antigen and test compound
B: Amount of histamine in supernatant under non-addition of antigen and test compound.
The test compound was used in a concentration of 10 μg/ml.

[4] = tested on: smooth musculus trachealis; test: Relaxant activity of smooth musculus trachealis in guinea pig; set-up: species or system guinea pig (male Hartley); settings: Cavia porcellus; tracheal chain strips, 37° C.; read-out: Concentration for 50% relaxation
Description: Male Hartley guinea pigs weighing 350 to 550 g were bleed to death, and immediately the tracheae were extirpated. According to the method of Takagi et al [cf. Chem. Pharm. Bull., 8, 716 (1958)], tracheal chain strips was prepared, and the sample was suspended on Magnus apparatus under addition of load of 0.5 g. The test was carried out at 37° C. of liquid temperature. After position of tonus was examined with histamine (10^-6 g/ml) and isoproterenol (10^-7 g/ml), the test compound dissolved in a mixture of dimethyl sulfoxide and physiological saline was added thereto, and the test compound was investigated with respect to the effect on smooth musculus trachealis. Theophylline was used as a positive comparative drug. The relaxation and the contraction of smooth musculus trachealis were recorded on servocorder (SR 6342: commercially available from Watanabe Instruments Corp.) by connecting Isotonic Transducer (TD-1125: commercially available from Nihon Kohden Kogyo Co., Ltd.) to a balancing box.

[5] = Acute toxicity in mouse; type: in vivo; settings: 2 weeks observation
Description: The test was carried out with the compounds obtained in Examples 5 and 9. Groups of 5 male ddy mice weighing 26 to 28 g were employed. The test compounds were suspended in a 0.5% CMC aqueous solution and the resulting suspension was administered orally in an amount of 500 for the compound obtained in Example 9, 1000 or 2000 mg/kg body weight. The survivors were kept under observation daily for 2 weeks. From the results shown in Table 6, the LD50 of the compounds obtained in Example 5 and 9 were estimated to be more than 2000 mg/kg. The other compounds of the present invention also had the same toxicity as the above compounds.

Compound | inhibition at 10 µM [1] [%] | EC50 [4] [µg/mL] | inhibition in vivo at 5 mg/kg [2] [%] | inhibition at 10 µg/mL [3] [%] | other results
CC(C)c1cccc2n(Cc3ccccc3)c(=O)c(-c3nnn[nH]3)c-2c1 [Example 4, 5-Iso-propyl-1-benzyl-3-(5-tetrazolyl)-1-azaazulane-2-one] | -1.1 | 6.6 (≈ 19.1 µM) | 78.2 ± 4.1 | 84.4 | –
Cc1ccc2c([nH]c(=O)c3c(=O)cc(C(=O)OCCC(C)C)oc32)c1C [repirinast, Isopentyl 5,6dihydro-7,8-dimethyl-4,5-dioxo-4Hpyrano[3,2c]quinoline2-carboxylate, reference compound] | – | – | 36.2 ± 5.8 | – | –
CC(C)c1cccc2c(-c3nnn[nH]3)c(=O)n(Cc3ccccc3)c-2c1 [Example 5, 7-Iso-propyl-1-benzyl-3-(5-tetrazolyl)-1-azaazulane-2-one] | 1.5 | 1.2 (≈ 3.47 µM) | 94.8 ± 5.1 | 81.1 | Mortality ([5]; 1000 mg/kg p.o.): 0/5; Mortality ([5]; 2000 mg/kg p.o.): 0/5; LD50 at 336 h ([5]; mouse, in vivo, oral): > 2000 mg/kg
CC(C)c1cccc2[nH]c(=O)c(-c3nnn[nH]3)c-2c1 [Example 1, 5-Iso-propyl-3-(5-tetrazolyl)-1-azaazulane-2-one] | – | 47 (≈ 184 µM) | – | 78.6 | –
CC(C)c1cccc2c(-c3nnn[nH]3)c(=O)[nH]c-2c1 [Example 2, 7-Iso-propyl-3-(5-tetrazolyl)-1-azaazulane-2-one] | – | 25 (≈ 97.9 µM) | – | 81.4 | –
O=c1c(-c2nnn[nH]2)c2cccccc-2n1Cc1ccccc1 [Example 3, 1-Benzyl-3-(5-tetrazolyl)-1-azaazulane-2-one] | 63.2 | – | 98.6 ± 3.5 | 84.9 | –
5(3-Butyloxyallylaminophenyl)-1H-tetrazole [WP-833, reference compound] | – | – | – | – | Inhibition rate against PCA [2]: 42.8 ± 5.1%
CC(C)c1cccc2n(CCCCCc3ccccc3)c(=O)c(-c3nnn[nH]3)c-2c1 [Example 6, 5-Iso-propyl-1-(5-phenylpentyl)-3-(5-tetrazolyl)-1-azaazulane-2-one] | 27 | 13.1 (≈ 32.6 µM) | – | 6.3 | –
CCCCn1c2cccccc-2c(-c2nnn[nH]2)c1=O [Example 17] | – | – | -1.9 ± 9.2 | 89.5 | –
Cn1c(=O)c2[nH]cnc2n(C)c1=O [theophylline, reference compound] | – | 6.8 (≈ 37.7 µM) | – | – | –

Further lines, with some results ahead:

inhibition at 10 µM [1] [%] | EC50 [4] [µg/mL] | Compound | inhibition in vivo at 5 mg/kg [2] [%] | inhibition at 10 µg/mL [3] [%] | other results
5.2 | – | N#Cc1c2cccccc-2nc1NCC(=O)O [Example 62, 3-Cyano-2-carboxymethylamino-1-azaazulene] | 14 ± 4.3 | 82.5 | –
– | 43 (≈ 160 µM) | CC(C)c1cccc2c(-c3nnn[nH]3)c(=O)n(C)c-2c1 [Example 16] | – | 88.3 | –
– | 44 (≈ 141 µM) | CCCCn1c2cccc(C(C)C)cc-2c(-c2nnn[nH]2)c1=O [Example 19] | – | 83.4 | –
-9.4 | 12.4 (≈ 35.8 µM) | CC(C)c1cccc2n(Cc3ccccn3)c(=O)c(-c3nnn[nH]3)c-2c1 [Example 13, 5-Iso-propyl-1-(2-pyridylmethyl)-3-(5-tetrazolyl)-1-azaazulane-2-one] | – | 91.5 | –
– | 52 (≈ 266 µM) | N#Cc1c2cccccc-2nc1N=[N+]=[N-] [Example 60, 2-Azido-3-cyano-1-azaazulene] | -27 ± 17.7 | 65.3 | –
– | 28 (≈ 89.9 µM) | CCCCn1c2cc(C(C)C)cccc-2c(-c2nnn[nH]2)c1=O [Example 18] | – | 86.9 | –
12.2 | 7.8 (≈ 20.9 µM) | CC(C)c1cccc2n(CCCc3ccccc3)c(=O)c(-c3nn[nH]n3)c-2c1 [Example 30] | 10.8 ± 11.1 | 99.5 | –
60.6 | – | CC(C)c1cccc2c(-c3nnn[nH]3)c(=O)n(CCCCCc3ccccc3)c-2c1 [Example 7, 7-Iso-propyl-1-(5-phenylpentyl)-3-(5-tetrazolyl)-1-azaazulane-2-one] | – | 10.6 | –
34.9 | – | O=c1c(-c2nn[nH]n2)c2cccccc-2n1Cc1ccc(C(F)(F)F)cc1 [Example 35] | – | 54.1 | –
-1.1 | – | CC(C)(C)c1cc(C(=O)Cn2c3cccccc-3c(-c3nn[nH]n3)c2=O)cc(C(C)(C)C)c1O [Example 48] | – | 10.4 | –
-2.6 | 42.3 (≈ 94.5 µM) | CCCc1c(OCCCn2c3cccccc-3c(-c3nn[nH]n3)c2=O)ccc(C(C)=O)c1O [Example 49] | – | 62.8 | –
17.3 | – | CC(C)c1cccc2c(-c3nn[nH]n3)c(=O)n(CCCc3ccccc3)c-2c1 [Example 29] | – | 99.5 | –
31.7 | – | O=C(O)c1ccc(Cn2c3cccccc-3c(-c3nn[nH]n3)c2=O)cc1 [Example 38] | – | 24.4 | –

Source: patent USRE34918E, “Azaazulene compounds which are useful as antiallergic and antiinflammatory agents” (Kaken Pharmaceutical Co., Ltd., priority 1988, dated 1995)
